How the values were obtained:
[1] = system: mice with intratracheal bleomycin injury; assay: Acute exposure bleomycin dose-finding study; type: in vivo, mouse
Procedure: On day 1 mice received intratracheal sham or bleomycin injury. On day 7 mice were divided into groups and treated daily with vehicle, 10, 30, or 100 mg/kg F-4N by oral gavage for 7 days. On day 14 organs and plasma were collected. Weight changes were measured throughout the experiment (FIG. 24B). Whole lung RNA expression of profibrotic genes as also examined (FIG. 24C). […] F-4N efficacy biomarkers were identified. RNA was collected from vehicle treated mice and from mice treated with 30 mg/kg F-4N. RNA was analyzed using the RT2 Profiler PCR array (Qiagen Catalog No.—330231) which measures expression of 89 different cytokines and chemokines. […] A level of genes whose expression is altered in response to F-4N can be used as a biomarker for F-4N efficacy.

[2] = Microsomal stability, human liver derived microsomes; type: in vitro ADME
Procedure: (§1) The microsomal stability of F-4N was also assessed (FIG. 28). Compounds were incubated with human or mouse liver derived microsomes. The percent of F-4N recovered was analyzed by LC-MS. Verapamil was used as a control for a rapidly degraded compound. Analysis was performed by Cyprotex (Framingham, MA).

[3] = Stability in human plasma; type: in vitro ADME
Procedure: The stability of F-4N in plasma was assessed (FIG. 27). Compounds were incubated with human or mouse plasma. The percent of F-4N recovered was analyzed by LC-MS. Warfarin was used as a control for stable compound, and propantheline was used as a control for an unstable compound. Analysis was performed by Cyprotex (Framingham, MA).

STK17A = molecular target: T1, STK17A (Homo sapiens, UniProt Q9UEE5); assay: Kinase dose response curve on STK17A; type: biochemical; settings: FIG. 4A, read-out: half maximal inhibitory concentration (IC50) on STK17A
T1 construct: purchased Reaction Biology
T1 sequence (Q9UEE5 1-414): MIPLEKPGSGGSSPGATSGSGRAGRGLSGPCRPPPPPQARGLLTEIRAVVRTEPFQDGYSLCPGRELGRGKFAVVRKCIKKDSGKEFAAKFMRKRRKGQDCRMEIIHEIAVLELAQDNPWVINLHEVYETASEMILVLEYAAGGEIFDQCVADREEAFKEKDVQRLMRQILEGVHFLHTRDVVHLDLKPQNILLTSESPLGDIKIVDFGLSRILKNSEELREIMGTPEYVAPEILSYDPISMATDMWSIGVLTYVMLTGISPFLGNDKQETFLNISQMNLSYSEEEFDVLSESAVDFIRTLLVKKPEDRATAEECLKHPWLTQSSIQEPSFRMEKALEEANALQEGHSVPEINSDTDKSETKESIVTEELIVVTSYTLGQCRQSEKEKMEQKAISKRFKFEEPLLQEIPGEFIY
Procedure: FIGS. 4A-4B show mechanism of action of F-4N. […] Dose response curves on STK17A and STK17B show half maximal inhibitory concentration (IC50) values of ˜200 nM. […] FIG. 4A. F-4N was sent to Reaction Biology to be tested against their entire wild-type kinase panel. 1 μM F-4N was tested in an ATP competition assay against 420+ kinases. Z-scores were calculated to identify true hits over noise.

mouse model of NASH = assay: Mouse model of NASH (CD-HFD); type: in vivo; settings: 10 mg/kg daily i.p. for 2 weeks
Procedure: FIGS. 20A-20D show the efficacy of F-4N in a mouse model of NASH. FIG. 20A) Study design and weight changes of mice treated with 10 mg/kg F-4N daily i.p. for 2 weeks. FIG. 20B). Representative H&E and Sirius Red liver histology. FIG. 20C) Objective automated quantification of Sirius Red staining. FIG. 20D) Liver weight and colon weight changes. N=5 chow diet, N=10 holine deficient-high fat diet (CD-HFD) vehicle, N=10 CD-HFD+F-4N.
Mice in a mouse model of NASH were treated with 10 mg/kg F-4N daily i.p. for 2 weeks (FIG. 20A). Livers from treated mice were analyzed by H&E and Sirius Red staining (FIG. 20B). Sirius Red staining was quantified (FIG. 20C). Liver weight and colon weight changes were also assessed (FIG. 20D).

[4] = Microsomal stability, mouse liver derived microsomes; type: in vitro ADME
Procedure: as §1

[5] = system: sections of lung tissue from IPF patient transplant lungs; assay: IPF patient-derived organotypic ex vivo culture; type: cell-based, human; settings: 3 μM, 4 days ex vivo, N=3 patient samples
Procedure: An IPF patient-derived organotypic ex vivo culture was used to determine efficacy of F-4N. Sections of lung tissue (about […]) were cut from IPF patient transplant lungs and cultured for 4 days ex vivo with DMSO (0.1%) or F-4N (3 μM). Lung tissue slices were collected, RNA was isolated, and qPCR analysis was performed (FIG. 31). Media was also collected for ELISA analysis for IL-6 (FIG. 31B). N=3 patient samples.

~400 kinases = assay: Kinome screen (Reaction Biology wild-type kinase panel, ATP competition assay); type: biochemical; settings: 1 μM, Z-scores
Procedure: FIG. 4A. F-4N was sent to Reaction Biology to be tested against their entire wild-type kinase panel. 1 μM F-4N was tested in an ATP competition assay against 420+ kinases. Z-scores were calculated to identify true hits over noise.
Kinome screening was used to test F-4N (1 μM) against ˜400 kinases.

[6] = Levels of unbound compound in plasma and liver of mice (LC-MS); type: in vivo, mouse; settings: 2 hours and 8 hours after the final dose, oral gavage 7 days
Procedure: Levels of F-4N in the plasma and liver of mice following F-4N exposure were examined (FIG. 26). Plasma and liver tissue was collected 2 hours and 8 hours after the final dose from the mice subjected to the protocol described in FIG. 24A. Levels of unbound (free) F-4N were analyzed by Cyprotex (Framingham, MA) using LC-MS.

[7] = system: low passage proliferating fibroblasts; assay: Apoptosis of low passage proliferating lung fibroblasts (cleaved caspase-3, DAPI); type: cell-based, human; settings: low passage proliferating fibroblasts from the same donor, 96 hours, 6-point dose-response, N=3
Procedure: Human adult lung fibroblasts were replicatively passaged until senescence (confirmed by RNA and senescence associated beta galactosidase staining). In a parallel experiment, low passage proliferating fibroblasts from the same donor were compared. Cells were plated into 96-well plates and treated with the indicated compound (6-point dose-response) and incubated for 96 hours. Cells were then fixed using 4% PFA, permeabilized using 0.25% triton x-100, and nuclear stained using a primary antibody for cleaved caspase-3, secondary fluorescence conjugated antibody, and DAPI. Cells were then imaged using a 4× objective on a Cytation5 microscope and cell counts were quantified using automated software (Biotek Gen5). Data shown are the EC50 values calculated for each compounds efficacy to induce apoptosis in senescence vs. proliferating lung fibroblasts, from the calculated dose-response curves, N=3 independent experiments.

[8] = 30 and 100 mg/kg daily oral gavage, 7 days

O=c1c(O)c(-c2ccc(OCc3ccncc3)cc2)oc2ccccc12 [F—4N]
number of genes with reduced expression (RT2 Profiler PCR array of 89 cytokines and chemokines) ([1]; 30 mg/kg, after 7 days of treatment): 11 genes | weight change [1, 8]: improved weight change | whole lung RNA expression of profibrotic genes [1, 8]: reduced expression | microsomal stability: half-life and clearance rate [2]: in line with many clinically approved orally administered drugs | stability in plasma (percent recovered, LC-MS) [3]: stable | IC50 (STK17A): ~200 nM | efficacy in NASH model (histology, Sirius Red, liver weight, liver function, triglyceride, hydroxyproline) (mouse model of NASH): effective to treat NASH | liver expression of profibrotic genes, inflammatory genes, and Stk17b (qPCR) (mouse model of NASH): effectively reduced expression | microsomal stability: half-life and clearance rate [4]: in line with many clinically approved orally administered drugs | expression of fibrotic markers (qPCR) [5]: reduced expression | expression of mature alveolar epithelial cell markers (qPCR) [5]: enhanced expression | Putative targets identified by kinome screening (~400 kinases): STK17A (also known as DRAK1), STK17B (also known as DRAK2), and MYLK4, AURKB, FLT3, and KIT | levels of unbound (free) compound in plasma and liver [6]: higher in liver than plasma | Proliferating fibroblast apoptosis EC50 [7]: inactive

Source: US20250368629A1, “FLAVONOID COMPOUNDS AND METHODS AND MATERIALS FOR USING FLAVONOID COMPOUNDS TO TREAT FIBROTIC CONDITIONS” (Mayo Foundation for Medical Education and Research, priority 2022, published 2025)
